According to patent publication US20260001914A1, “MACROCYCLIC PEPTIDES TARGETING KRAS” (Merck Sharp & Dohme LLC, priority 2022, published 2026):
*1 amine or outer side, *2 acyl side, *3 side chain or, on linkers, in order; H or OH if unused. Where a SMILES comes first, the peptide text is derived from it. Bridges are numbered along the chain shown (N, C = ends). [ ]: non-standard residue; d: D form. Phe(4-guanidino) = N=C(N)Nc1ccc(C[C@H](N)C(=O)O)cc1; Ala(pyrimidin-5-yl) = N[C@@H](Cc1cncnc1)C(=O)O; NMe3Pal(5-F) = CN[C@@H](Cc1cncc(F)c1)C(=O)O; X14 = O=C([C@H](Cc1c(F)cncc1F)N[*:1])[*:2]; X25 = O=C([C@H](Cc1ccc(F)nc1)N[*:1])[*:2]; X15 = O=C([C@H](Cc1cnccc1F)N[*:1])[*:2]; Phe(4-F) = N[C@@H](Cc1ccc(F)cc1)C(=O)O; NHCH2CH2SCH2CO = O=C(CSCCN[*:1])[*:2]; Phe(2-F) = N[C@@H](Cc1ccccc1F)C(=O)O; NMe3Pal = CN[C@@H](Cc1cccnc1)C(=O)O; X1 = O=C(C12CC(CN[*:1])(C1)C2)[*:2]; NMeLys(Me) = CNCCCC[C@H](NC)C(=O)O; Ala(cPr) = N[C@@H](CC1CC1)C(=O)O; NMeF = CN[C@@H](Cc1ccccc1)C(=O)O; PhLac = O=C(O)[C@@H](O)Cc1ccccc1; 3Pal = N[C@@H](Cc1cccnc1)C(=O)O; 4Pal = N[C@@H](Cc1ccncc1)C(=O)O; 3Thi = N[C@@H](Cc1ccsc1)C(=O)O; X58 = O=C(C1CC(N[*:1])C1)[*:2]; AllylGly = C=CC[C@H](N)C(=O)O; Ahp(2) = CCCCC[C@H](N)C(=O)O; Cba = N[C@@H](CC1CCC1)C(=O)O; hLeu = CC(C)CC[C@H](N)C(=O)O; αMeC = C[C@](N)(CS)C(=O)O; NMeA = CN[C@@H](C)C(=O)O; Nle = CCCC[C@H](N)C(=O)O; Nva = CCC[C@H](N)C(=O)O

molecular target: KRAS-G12D protein (Homo sapiens, UniProt P01116, G12D); assay: SOS-mediated nucleotide exchange assay (BODIPY-GDP / Tb-streptavidin TR-FRET); format: biochemical
Sequence (P01116 1-188 isoform P01116-2 G12D): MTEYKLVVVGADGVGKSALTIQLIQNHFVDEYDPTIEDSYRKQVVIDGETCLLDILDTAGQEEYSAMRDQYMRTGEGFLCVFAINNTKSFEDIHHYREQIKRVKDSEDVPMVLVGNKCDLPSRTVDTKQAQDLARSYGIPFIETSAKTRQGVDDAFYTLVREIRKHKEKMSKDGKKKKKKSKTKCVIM

Compound | EC50 [nM]
CC(C)CC[C@@H]1NC(=O)[C@H](Cc2ccccc2F)NC(=O)[C@H](CC2CC2)NC(=O)[C@H](Cc2cccnc2)NC(=O)[C@H](C)N(C)C(=O)[C@H](Cc2ccccc2)OC(=O)C23CC(CNC(=O)[C@H](Cc4cncc(F)c4)N(C)C1=O)(C2)C3 [compound 283, cyclo(FLac-NMeA-3Pal-cPrA-Phe2F-hL-NMe3Pal5F-amBCP)] (cyclo([3Pal][Ala(cPr)][Phe(2-F)][hLeu][NMe3Pal(5-F)][X1][PhLac][NMeA])) | 3
CCCC[C@@H]1NC(=O)[C@H](Cc2ccsc2)NC(=O)[C@H](C)N(C)C(=O)[C@H](Cc2ccccc2)OC(=O)C23CC(CNC(=O)[C@H](Cc4ccccc4)N(C)C(=O)[C@H](CCCC)NC(=O)[C@H](Cc4ccccc4F)NC1=O)(C2)C3 [compound 318, cyclo(FLac-NMeA-3Thi-Nle-Phe2F-Nle-NMeF-amBCP)] (cyclo([3Thi][Nle][Phe(2-F)][Nle][NMeF][X1][PhLac][NMeA])) | 527
CCC[C@@H]1NC(=O)[C@H](Cc2ccc(OC)cc2)NC(=O)[C@H](CC(C)C)NC(=O)[C@H](Cc2ccncc2)NC(=O)[C@H](CCCNC(=N)N)NC(=O)[C@H](Cc2ccc(F)cc2)NC(=O)CSC[C@H](C(=O)NCC(=O)O)NC(=O)[C@H](Cc2ccccc2)N(C)C1=O [compound 65, cyclo(Phe4F-R-4Pal-L-TyrOMe-Nva-NMeF-dC5-ClAc)] ({CH2CO}-[Phe(4-F)]R[4Pal]LY(Me)[Nva][NMeF][dC]G-OH; thioether N-8) | 70.2
CCCC[C@@H]1NC(=O)[C@H](Cc2ccc(NC(=N)N)cc2)NC(=O)[C@H](CCCNC(=N)N)NC(=O)[C@H](Cc2ccccc2)NC(=O)C2CC(C2)NC(=O)[C@H](Cc2ccccc2)N(C)C(=O)[C@H](CCCC)NC(=O)[C@H](Cc2ccc(OC)cc2)NC1=O [compound 92, cyclo(F-R-Phe4Gn-Nle-TyrOMe-Nle-NMeF-acBu)] (cyclo(FR[Phe(4-guanidino)][Nle]Y(Me)[Nle][NMeF][X58])) | 13.9
CC(C)CC[C@@H]1NC(=O)[C@H](Cc2c(F)cncc2F)NC(=O)[C@H](CC2CC2)NC(=O)[C@H](Cc2cncnc2)NC(=O)[C@H](C)N(C)C(=O)[C@H](Cc2ccccc2)OC(=O)C23CC(CNC(=O)[C@H](Cc4ccccc4)N(C)C1=O)(C2)C3 [compound 292, cyclo(FLac-NMeA-PyrimAla-cPrA-4Pal26F2-hL-NMeF-amBCP)] (cyclo([Ala(cPr)][X14][hLeu][NMeF][X1][PhLac][NMeA][Ala(pyrimidin-5-yl)])) | 64
CCC[C@@H]1NC(=O)[C@H](Cc2ccc(OC)cc2)NC(=O)[C@H](CC(C)C)NC(=O)[C@H](Cc2ccncc2)NC(=O)[C@H](CCCNC(=N)N)NC(=O)[C@H](Cc2ccc(F)cc2)NC(=O)CSCCNC(=O)[C@H](Cc2ccccc2)N(C)C1=O [compound 88, cyclo(Phe4F-R-4Pal-L-TyrOMe-Nva-NMeF-Cysteamine-ClAc)] (cyclo([4Pal]LY(Me)[Nva][NMeF][NHCH2CH2SCH2CO][Phe(4-F)]R)) | 3010
CCCC[C@@H]1NC(=O)[C@H](Cc2cccnc2)NC(=O)[C@H](CCCNC(=N)N)NC(=O)[C@H](Cc2ccccc2)NC(=O)CSC[C@@](C)(C(=O)N(C)C)NC(=O)[C@H](Cc2cccnc2)N(C)C(=O)[C@H](CCCC)NC(=O)[C@H](Cc2ccccc2F)NC1=O [compound 184, cyclo(F-R-3Pal-Nle-Phe2F-Nle-NMe3Pal-aMeC7-ClAc)] ({CH2CO}-FR[3Pal][Nle][Phe(2-F)][Nle][NMe3Pal][αMeC]-NMe2; thioether N-8) | 728
CCCC[C@@H]1NC(=O)[C@H](Cc2ccc(F)nc2)NC(=O)[C@H](C)N(C)C(=O)[C@H](Cc2ccccc2)OC(=O)C23CC(CNC(=O)[C@H](Cc4ccccc4)N(C)C(=O)[C@H](CCCC)NC(=O)[C@H](Cc4ccccc4F)NC1=O)(C2)C3 [compound 231, cyclo(FLac-NMeA-4F3Pal-Nle-Phe2F-Nle-NMeF-amBCP)] (cyclo([NMeA][X25][Nle][Phe(2-F)][Nle][NMeF][X1][PhLac])) | 72.4
CC(C)CC[C@@H]1NC(=O)[C@H](Cc2ccccc2F)NC(=O)[C@H](CC2CCC2)NC(=O)[C@H](Cc2cncnc2)NC(=O)[C@H](C)N(C)C(=O)[C@H](Cc2ccccc2)OC(=O)C23CC(CNC(=O)[C@H](Cc4ccccc4)N(C)C1=O)(C2)C3 [compound 134, cyclo(FLac-NMeA-PyrimAla-cBuA-Phe2F-hL-NMeF-amBCP)] (cyclo([Cba][Phe(2-F)][hLeu][NMeF][X1][PhLac][NMeA][Ala(pyrimidin-5-yl)])) | 6.47
COc1ccc(C[C@@H]2NC(=O)[C@H](CC3CCC3)NC(=O)[C@H](Cc3cccnc3)NC(=O)[C@H](CCCNC(=N)N)NC(=O)[C@H](Cc3ccccc3)NC(=O)CSC[C@](C)(C(N)=O)NC(=O)[C@@H]3CCCCCCCC[C@H](NC2=O)C(=O)N3C)cc1 [SEQ ID NO: 193, cyclo(F-R-3Pal-cBuA-TyrOMe-AheNMeAhe-aMeC-C1Ac)] | 900
CCCCC[C@@H]1NC(=O)[C@H](Cc2ccc(OC)cc2)NC(=O)[C@H](CC2CCC2)NC(=O)[C@H](Cc2ccc(NC(=N)N)cc2)NC(=O)[C@H](CCCCNC)N(C)C(=O)[C@H](Cc2ccccc2)NC(=O)CSC[C@@](C)(C(N)=O)NC(=O)[C@H](Cc2ccccc2)N(C)C1=O [compound 360, cyclo(F-NMeLysMe-Phe4Gn-cBuA-TyrOMe-Ahp-NMeF-aMeCl-ClAc)] ({CH2CO}-F[NMeLys(Me)][Phe(4-guanidino)][Cba]Y(Me)[Ahp(2)][NMeF][αMeC]-NH2; thioether N-8) | 291
CC(C)CC[C@@H]1NC(=O)[C@H](Cc2cnccc2F)NC(=O)[C@H](CC2CC2)NC(=O)[C@H](Cc2cncnc2)NC(=O)[C@H](C)N(C)C(=O)[C@H](Cc2ccccc2)OC(=O)C23CC(CNC(=O)[C@H](Cc4ccccc4)N(C)C1=O)(C2)C3 [compound 213, cyclo(FLac-NMcA-PyrimAla-cPrA-3Pal6F-hL-NMeF-amBCP)] (cyclo([Ala(cPr)][X15][hLeu][NMeF][X1][PhLac][NMeA][Ala(pyrimidin-5-yl)])) | 3.72
CCCCC[C@@H]1NC(=O)[C@H](Cc2ccc(OC)cc2)NC(=O)[C@H](CC2CCC2)NC(=O)[C@H](Cc2ccc(=O)[nH]c2)NC(=O)[C@H](CCCNC(=N)N)NC(=O)[C@H](Cc2ccccc2)NC(=O)CSC[C@@](C)(C(N)=O)NC(=O)[C@H](Cc2ccccc2)N(C)C1=O [compound 369, cyclo(F-R-4CO3Pal-cBuA-TyrOMe-Abp-NMeF-aMeCl-ClAc)] | 19.4
CCCC[C@@H]1NC(=O)[C@H](Cc2ccccc2F)NC(=O)C(CC2CC(F)(F)C2)NC(=O)[C@H](Cc2cncnc2)NC(=O)[C@H](C)N(C)C(=O)[C@H](Cc2ccccc2)OC(=O)C23CC(CNC(=O)[C@H](Cc4cccnc4)N(C)C1=O)(C2)C3 (single isomer, unassigned) [compound 123, cyclo(FLac-NMeA-PyrimAla-rF2Cba-Phe2F-Nle-NMe3Pal-amBCP)] | 8190
CCCC[C@@H]1NC(=O)[C@@H]2C/C=C\C[C@@H](C(N)=O)NC(=O)[C@H](CSCC(=O)N[C@@H](Cc3ccccc3)C(=O)N[C@@H](CCCNC(=N)N)C(=O)N[C@@H](Cc3cccnc3)C(=O)N[C@@H](CC3CCC3)C(=O)N2)NC(=O)[C@H](Cc2cccnc2)N(C)C1=O [SEQ ID NO: 186, cyclo(C1Ac-F-R-3Pal-cBuA-Ape-Nle-NMe3Pal-C)] ({CH2CO}-FR[3Pal][Cba][AllylGly][Nle][NMe3Pal]C[AllylGly]-NH2; staple (Z) 5-9; thioether N-8) | 7270
